Laboratory results: patent US20030088057A1, “PEPTIDE SUBSTRATES PHOSPHORYLATED BY P21-ACTIVAGED PROTEIN KINASE STATEMENT REGARDING FEDERALLY SPONSORED REASEARCH OR DEVELOPMENT” (priority 1998, published 2003)
No end group written: not given here.

How the values were obtained:
γ-PAK [1] = test: Rates of phosphorylation of synthetic peptides by γ-PAK; format: biochemical, rabbit
Text: (§1) A. Materials. γ-PAK was purified from rabbit reticulocytes to apparent homogeneity by chromatography on DEAE-cellulose, SP-Sepharose, protamine agarose, and FPLC on Mono S and Mono Q. Histone I (type IIIS), mixed histone (type IIAS), trypsin (L-1-tosylamido-2-phenylethyl chloromethyl ketone treated), soybean trypsin inhibitor, bovine serum albumin (fatty acid free), and myelin basic protein were purchased from Sigma. Purified histones 2B and 4 were purchased from Boehringer-Mannheim. Myosin light chain from rabbit skeletal muscle was a gift from Dr. James Stull, University of Texas Southwestern Medical Center, Dallas, Tex.; rat prolactin was provided by Dr. Ameae Walker, University of California, Riverside, Calif.; and the purified catalytic subunit of cAMP-dependent protein kinase from bovine heart was a gift from Dr. William H. Fletcher, J. L. Pettis Memorial V. A. Hospital, Loma Linda, Calif. Protein kinase C was purified from bovine brain according to the procedure of Walton et al. [Walton, G. M., et al., Anal Biochem., 161:425-437 (1987)], with modifications [Venema, R. C., et al., J. Biol. Chem., 266:5298-5302 (1991)]. The clone for GST-Cdc42 was generously provided by Dr. Channing Der, University of North Carolina, Chapel Hill, N.C. Cellulose thin-layer chromatography sheets were from Kodak.
D. Phosphorylation Assays. Phosphorylation of protein substrates was carried out in 35 μL reaction mixtures containing 20 mM Tris-HCl, pH 7.4, 10 mM MgCl2, 30 mM 2-mercaptoethanol, 0.2 mM ATP (specific activity =1000 cpm/pmol), 2 μg of protein substrate, and 20 units of active γ-PAK (an enzyme unit is defined as the amount of enzyme that incorporates 1 pmol of phosphate into histone IIAS/ min at 30°. Under these conditions, phosphate incorporation was linear and initial rates of phosphorylation were measured. After incubation at 30° C. for 15 min, reactions were terminated by the addition of 5 μL of 100 mM nonlabeled ATP and sample buffer for gel electrophoresis [Hathaway, G. M., et al., Methods Enzymol., 60:495-511 (1979)]. Reaction mixtures were subjected to SDS-PAGE on 15% polyacrylamide gels followed by autoradiography. Phosphorylation was quantified by excising the protein band and counting the incorporated ^32P in a liquid scintillation counter. The specific activity of γ-PAK was 400 pmol min^−1 μg^−1 as reported previously using 0.2 mM ATP and 1 mg/mL mixed histone as substrate [Rooney, R. D., et al., (1996), supra].
(§2) Assays with peptides (I mM) were carried out with γ-PAK (1.6-5.6 units) in 25 μL reaction mixtures incubated for 30 min at 30° C. under conditions described above, except that 0.4 mg/mL of bovine serum albumin was added and the specific activity of ATP was 300-2000 cpm/pmol. Reactions were terminated with 5 μL of 100 mM ATP, and the amount of ^32p incorporated was quantitated by precipitation of 20 μL aliquots on P81 phosphocellulose paper with 75 mM H3PO4 as described previously [Bensen, E. S., et al., Biochim. Biophys. Acta, 1292:249-258 (1996)]. Peptides containing only one basic amino acid were analyzed by thin-layer electrophoresis on cellulose sheets for 2 h at 600 V with pyridine/acetic acid/water (10:100:890), pH 3.5, as solvent, as described previously [Bensen, E. S., et al., supra]. Activation of γ-PAK by autophosphorylation in the presence of Cdc42(GTPγS) was performed as previously described [Jakobi, R., et al., supra]. γ-PAK was also activated by limited digestion with trypsin as described previously [Rooney, R. D., et al., (1996), supra].

γ-PAK [2] = test: Kinetic parameters (Km, Vmax) for phosphorylation of synthetic peptides by γ-PAK; format: biochemical, rabbit
Method: as §2

PKC = test: Rates of phosphorylation of synthetic peptides by PKC; format: biochemical, bovine
Text: as §1
(§3) Reactions with PKA (10.5 units) were carried out under the same conditions as with γ-PAK except that 0.14 mM ATP was used. Reactions with PKC (3.4 units) were performed as with PKA, with the addition of 0.4 mM CaCl2, phosphatidylinositol (15 μg/mL), phosphatidylserine (15 μg/ mL), and 1,2-diolein (3 μg/mL), as described [Tuazon, P. T., et al., (1989), supra]. A unit of PKA or PKC is defined as the amount of enzyme that incorporates 1 pmol of phosphate/min at 30° C. into histone IIAS or histone 1, respectively.
PKA and PKC are known to require basic amino acids on the N-terminal side of the phosphorylatable serine/ threonine. To distinguish their substrate specificities from that of γ-PAK, the relative rates of phosphorylation were determined with the synthetic peptide substrates using the conditions for γ-PAK, with the addition of Ca^2+ and phospholipids for PKC. The rates shown in Table 5 are calculated with equivalent units of enzyme; the rate of phosphorylation of the peptide AKRASAA (SEQ ID NO:6) is taken as 100% for all three enzymes. As would be expected, PKA preferentially phosphorylated the peptides that contained RR or RK at the −3 and −2 positions and with […] residues or proline at the −4 and −1 positions inhibitory. PKC recognized SKR>RKS>KKS. The most notable difference between γ-PAK and PKA or PKC is the effect of acidic residues on the susceptibility of the peptide to be phosphorylated. An acidic residue in the −1 or −4 position was beneficial for γ-PAK but was detrimental for both PKA and PKC (Table 5). […] In addition, γ-PAK could not tolerate an arginine in the −3 position when lysine was in the −2 position.

PKA = molecular target: T1, PKA (Bos taurus, UniProt P00517); test: Rates of phosphorylation of synthetic peptides by PKA; format: biochemical, bovine
T1 construct: the purified catalytic subunit of cAMP-dependent protein kinase from bovine heart was a gift; from tissue; host or cells: bovine heart (gift from Dr. William H. Fletcher)
Text: as §1, with “Myosin light chain from rabbit skeletal muscle was a gift from Dr. James Stull, University of Texas Southwestern Medical Center, Dallas, Tex.; rat prolactin was provided by Dr. Ameae Walker, University of California, Riverside, Calif.; and the purified catalytic subunit of cAMP-dependent protein kinase from bovine heart was a gift from Dr. William H. Fletcher, J. L. Pettis Memorial V. A. Hospital, Loma Linda, Calif.” left out
as §3
PKA and PKC are known to require basic amino acids on the N-terminal side of the phosphorylatable serine/ threonine. To distinguish their substrate specificities from that of γ-PAK, the relative rates of phosphorylation were determined with the synthetic peptide substrates using the conditions for γ-PAK, with the addition of Ca^2+ and phospholipids for PKC.

γ-PAK [3] = molecular target: T2, γ-PAK (Oryctolagus cuniculus, UniProt Q29502); test: Phosphorylation of heptapeptides by Cdc42-activated γ-PAK with ATP(Mg) and ATP(Mn); format: biochemical, rabbit; settings: γ-PAK 2.5 units, Cdc42(GTPγS)-activated; 10 mM MgCl2 or 6 mM MnCl2
T2 construct: γ-PAK was purified from rabbit reticulocytes to apparent homogeneity; from tissue; host or cells: rabbit reticulocytes (γ-PAK)
T2 sequence (Q29502 2-524 limits assumed): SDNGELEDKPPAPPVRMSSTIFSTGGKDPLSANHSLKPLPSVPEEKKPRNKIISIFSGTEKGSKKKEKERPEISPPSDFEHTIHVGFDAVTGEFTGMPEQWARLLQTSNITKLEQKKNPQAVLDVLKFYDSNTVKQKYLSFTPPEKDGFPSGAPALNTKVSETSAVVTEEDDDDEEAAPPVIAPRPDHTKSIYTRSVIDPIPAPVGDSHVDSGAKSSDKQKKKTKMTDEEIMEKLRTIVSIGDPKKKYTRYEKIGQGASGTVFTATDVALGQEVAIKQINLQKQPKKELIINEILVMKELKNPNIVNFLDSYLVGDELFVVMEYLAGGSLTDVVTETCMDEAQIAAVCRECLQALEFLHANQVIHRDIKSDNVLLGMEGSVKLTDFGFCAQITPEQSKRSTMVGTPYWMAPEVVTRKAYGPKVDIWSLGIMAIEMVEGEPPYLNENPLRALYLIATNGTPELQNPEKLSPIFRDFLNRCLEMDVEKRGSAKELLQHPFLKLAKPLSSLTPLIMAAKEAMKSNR
Method: Synthetic heptapeptides were used to examine the activity of γ-PAK with manganese and magnesium. The peptides were incubated with γ-PAK (2.5 units), activated by autophosphorylation in the presence of Cdc42(GTPγS) and 10 mM MgCl2 or 6 mM MnCl2 as described under Experimental Procedures.

Sequence of γ-PAK (Q29502 249-500 limits assumed): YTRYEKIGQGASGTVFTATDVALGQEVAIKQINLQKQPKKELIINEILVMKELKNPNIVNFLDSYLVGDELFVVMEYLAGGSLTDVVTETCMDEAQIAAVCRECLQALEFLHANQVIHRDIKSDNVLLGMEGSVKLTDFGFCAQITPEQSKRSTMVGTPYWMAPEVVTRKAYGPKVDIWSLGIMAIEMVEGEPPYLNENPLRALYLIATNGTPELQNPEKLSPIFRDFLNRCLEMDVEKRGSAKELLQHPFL

Which “rel rate (%)” value (γ-PAK [1]; Cdc42(GTPγS)-activated γ-PAK, peptide 1 mM, KKRKSAA = 100) does the source give for “AKRESAA (AKRESAA-NH2) [synthetic peptide with an amide C-terminal group]” here?
The value was 295%.

What about the “rel rate (%)” value (γ-PAK [1]; proteolytically (trypsin) activated γ-PAK, peptide 1 mM, compared to KKRKSAA = 100) of the same substance?
The value was 247%.

What about the 32P incorporated (γ-PAK [1]; proteolytically activated γ-PAK (5.6 units), peptide 1 mM, 30 min at 30° C.) of the same substance?
The 32P incorporated was 750 pmol/min/µg.

And the “32P incorporated, %” value (γ-PAK [1]; γ-PAK, AKRASAA taken as 100%)?
The value was 176%.

What about the 32P incorporated (γ-PAK [1]; γ-PAK, calculated with equivalent units of enzyme) of the same substance?
Its 32P incorporated is 47.2 pmol/unit.

And the “rate of phosphorylation compared to AKRASAA” value (γ-PAK [1]; γ-PAK, relative to AKRASAA)?
The value was 175%.

And the “increase of Km compared to AKRASAA” value (γ-PAK [2])?
Its value is ~3 fold.

And the “increase of Vmax compared to AKRASAA” value (γ-PAK [2])?
The value was 6 fold.

What about the “overall rate of phosphorylation (Vmax/Km) compared to AKRASAA” value (γ-PAK [2]) of the same substance?
The value was ~2.2 fold.

What about the Vmax (γ-PAK [2]; Table 3, influence of acidic amino acids) of the same substance?
The Vmax was 6.62 pmol/min.

And the Km (γ-PAK [2]; Table 3, influence of acidic amino acids, read-out: Km)?
The Km was 1350 µM.

And the Vmax (γ-PAK [2]; text summary b32)?
The Vmax was 6.62 pmol/min.

And the 32P incorporated (PKC; PKC (3.4 units), with Ca2+ and phospholipids, 0.14 mM ATP)?
Its 32P incorporated is 0.4 pmol/unit.

And the “32P incorporated, %” value (PKC; PKC, AKRASAA taken as 100%)?
Its value is 12%.

What about the 32P incorporated (PKA; PKA (10.5 units), 0.14 mM ATP) of the same substance?
The 32P incorporated was 1.8 pmol/unit.

And the “32P incorporated, %” value (PKA; PKA, AKRASAA taken as 100%)?
The value was 38%.

What about the “phosphorylation using ATP(Mg) or ATP(Mn) (in words)” value (γ-PAK [3]) of the same substance?
Its value is “good substrates”.
